The values below are quoted from earlier work in patent US9382205B2, “Processes for the manufacture of a pharmaceutically active agent” (H. Lundbeck A/S, priority 2009, dated 2016).

The term Ki denotes a measure of affinity in units of concentration, obtained from inhibition or displacement.

The conditions of data set [1]: Rogers et al. 1999.
The next data set has as its system Alzheimer's patients. As to conditions: first report.
The next data set deals with human 5-HT6 receptor. Conditions: from Roth et al. 1994.

As to `COc1ccc(NS(=O)(=O)c2sc3ccc(Cl)cc3c2C)cc1N1CCNCC1` [SB-271046], the “spatial alternation operant behavior test” value in the data set on aged rats is “improvements”. The “performance in the Morris water maze” value in data set [1] was “improved performance”.
For `O=S(=O)(c1ccccc1)c1cnc2c(N3CCNCC3)cccc2c1` [SB-742457], the clinical benefit result in the data set on Alzheimer's patients was “of clinical benefit”.
Take `CN(C)CCC=C1c2ccccc2CCc2ccccc21` [amitriptyline]: the Ki on human 5-HT6 receptor is 0.065 µM.
